In article PMC8286840, “Identifying SARS-CoV-2 antiviral compounds by screening for small molecule inhibitors of Nsp3 papain-like protease” (Biochemical Journal, 2021):
Where a name gives a salt, the structure may show the parent alone. Read-outs that look alike come from different tables or passages of the source.

Assays:
[1] = target: T1, SARS-CoV-2 PLpro (nsp3 1564–1878) (Severe acute respiratory syndrome coronavirus 2, UniProt P0DTD1); assay: biochemical; set-up: FRET-quenched peptide (Pro3) cleavage by PLpro, 10 min pre-incubation, slope over 20 min, normalised to no-compound control; settings: low concentration screen, read-out: % of control remaining
[2] = target: T1, SARS-CoV-2 PLpro (nsp3 1564–1878); assay: biochemical; set-up: FRET-quenched peptide (Pro3) cleavage by PLpro, 10 min pre-incubation, slope over 20 min, normalised to no-compound control; settings: high concentration screen, read-out: % of control remaining

NCC(O)c1ccc(O)cc1 (racemic) [(+,-)-Octopamine HCl]
remaining activity at 1.25 µM ([1]; Well no.=5038): 101%
remaining activity at 3.75 µM ([2]; Well no.=5038): 103%

CC(C)(C)NCC(O)c1ccc(O)c(CO)c1 (stereo not shown) [Salbutamol]
remaining activity at 1.25 µM ([1]; Well no.=1366): 101%
remaining activity at 3.75 µM ([2]; Well no.=1366): 101%

OC[C@H]1O[C@@H](n2cnc3c(N[C@@H]4CCc5ccccc54)ncnc32)[C@H](O)[C@@H]1O [PD 117519]
remaining activity at 1.25 µM ([1]; Well no.=7763): 96.4%
remaining activity at 1.25 µM ([1]; Well no.=8169): 106%
remaining activity at 3.75 µM ([2]; Well no.=7763): 102%
remaining activity at 3.75 µM ([2]; Well no.=8169): 110%

Cn1c(=O)c2c(ncn2CC(O)CO)n(C)c1=O (stereo not shown) [Dyphylline]
remaining activity at 1.25 µM ([1]; Well no.=8092): 93.8%
remaining activity at 3.75 µM ([2]; Well no.=8092): 95.3%

O=C(O)CCCCC(=O)O [Adipic acid]
remaining activity at 1.25 µM ([1]; Well no.=6869): 102%
remaining activity at 3.75 µM ([2]; Well no.=6869): 98.1%

CN1CCN2c3c(cccc31)[C@@H]1CN(CCCC(=O)c3ccc(F)cc3)CC[C@@H]12 [lumateperone (Tosylate)]
remaining activity at 1.25 µM ([1]; Well no.=7807): 104%
remaining activity at 3.75 µM ([2]; Well no.=7807): 108%

CCCCCC#CCC#CCC#CCC#CCCCC(=O)O [5,8,11,14-Eicosatetraynoic acid]
remaining activity at 1.25 µM ([1]; Well no.=4472): 98.7%
remaining activity at 3.75 µM ([2]; Well no.=4472): 97.4%

C[C@@H]1c2cc(O)c(O)cc2CCN1C [N-methyl-R-salsolinol hydrobromide]
remaining activity at 1.25 µM ([1]; Well no.=830): 99.6%
remaining activity at 3.75 µM ([2]; Well no.=830): 101%

CN1CCc2nc(C(=O)N[C@@H]3C[C@@H](C(=O)N(C)C)CC[C@@H]3NC(=O)C(=O)Nc3ccc(Cl)cn3)sc2C1 [Edoxaban]
remaining activity at 1.25 µM ([1]; Well no.=8572): 99.4%
remaining activity at 3.75 µM ([2]; Well no.=8572): 97.7%

CC(O)C(C)OC(=O)[C@@H]1C[C@@H]2c3cccc4c3c(cn4C(C)C)C[C@H]2N(C)C1 (stereo partly shown) [LY-53,857 maleate]
remaining activity at 1.25 µM ([1]; Well no.=772): 99.8%
remaining activity at 3.75 µM ([2]; Well no.=772): 97.2%

Nc1nc(=O)n([C@@H]2CS[C@H](CO)O2)cc1F [Emtricitabine]
remaining activity at 1.25 µM ([1]; Well no.=1733): 100%
remaining activity at 3.75 µM ([2]; Well no.=1733): 100%

C=CC(=O)N1CCN(C(=O)CNc2cc(I)c(Cl)cc2O)CC1 [K-Ras(G12C) inhibitor 12]
remaining activity at 1.25 µM ([1]; Well no.=7951): 99.9%
remaining activity at 3.75 µM ([2]; Well no.=7951): 90.4%

CCCCc1oc2ccccc2c1C(=O)c1cc(I)c(OCCN(CC)CC)c(I)c1 [Amiodarone hydrochloride]
remaining activity at 1.25 µM ([1]; Well no.=198): 97%
remaining activity at 3.75 µM ([2]; Well no.=198): 98.7%

CC(=O)N[C@@H](C(=O)O)C(C)(C)SN=O [S-Nitroso-N-acetylpenicillamine]
remaining activity at 1.25 µM ([1]; Well no.=1045): 99.8%
remaining activity at 3.75 µM ([2]; Well no.=1045): 98.3%

Cc1nc(-c2ccc(-c3ccc(C(=O)N4CCc5cc6c(cc54)C4(CCN(C)CC4)CO6)cc3)c(C)c2)no1 [SB 224289 hydrochloride]
remaining activity at 1.25 µM ([1]; Well no.=1423): 96.6%
remaining activity at 3.75 µM ([2]; Well no.=1423): 97.3%

COc1cccc(C(=O)O)c1 [3-Methoxybenzoic acid]
remaining activity at 1.25 µM ([1]; Well no.=6587): 100%
remaining activity at 3.75 µM ([2]; Well no.=6587): 98.4%

CN1[C@@H](CC(=O)c2ccccc2)CCC[C@H]1C[C@H](O)c1ccccc1 [Lobeline (hydrochloride)]
remaining activity at 1.25 µM ([1]; Well no.=8326): 104%
remaining activity at 3.75 µM ([2]; Well no.=8326): 100%

CCCCCCCC(=O)O [Octanoic acid]
remaining activity at 1.25 µM ([1]; Well no.=6591): 104%
remaining activity at 3.75 µM ([2]; Well no.=6591): 110%

N=C(N)NC(=N)NCCc1ccccc1 [Phenformin HCl]
remaining activity at 1.25 µM ([1]; Well no.=4908): 100%
remaining activity at 3.75 µM ([2]; Well no.=4908): 98.5%

Cc1ccc(C(=O)C(C)CN2CCCCC2)cc1 (stereo not shown) [Tolperisone (hydrochloride)]
remaining activity at 1.25 µM ([1]; Well no.=7498): 99%
remaining activity at 3.75 µM ([2]; Well no.=7498): 100%

O=C(O)c1ccc(-n2nc(-c3ccccc3O)nc2-c2ccccc2O)cc1 [Deferasirox]
remaining activity at 1.25 µM ([1]; Well no.=8190): 107%
remaining activity at 3.75 µM ([2]; Well no.=8190): 100%

CN1CCc2cccc3c2[C@H]1Cc1ccc(O)c(O)c1-3 [Apomorphine hydrochloride hemihydrate]
remaining activity at 1.25 µM ([1]; Well no.=349): 99.6%
remaining activity at 3.75 µM ([2]; Well no.=349): 103%

O=C(CNC(=O)c1cccc(C(F)(F)F)c1)N[C@@H]1CCN(Cc2ccc(Cl)cc2)C1 [Teijin compound 1 hydrochloride]
remaining activity at 1.25 µM ([1]; Well no.=5505): 104%
remaining activity at 3.75 µM ([2]; Well no.=5505): 112%

C[C@@H]1CCCN1CCc1cc2cc(-c3ccc(C#N)cc3)ccc2o1 [ABT-239]
remaining activity at 1.25 µM ([1]; Well no.=8049): 103%
remaining activity at 3.75 µM ([2]; Well no.=8049): 101%

CN1C[C@@H]2c3ccccc3Oc3ccc(Cl)cc3[C@H]2C1 (racemic) [Asenapine (maleate)]
remaining activity at 1.25 µM ([1]; Well no.=6513): 102%
remaining activity at 3.75 µM ([2]; Well no.=6513): 103%

CN(C)C(=O)Oc1cc(OC(=O)N(C)C)cc(C(O)CNC(C)(C)C)c1 (stereo not shown) [Bambuterol]
remaining activity at 1.25 µM ([1]; Well no.=1770): 92.4%
remaining activity at 3.75 µM ([2]; Well no.=1770): 92.8%

O=C(O)c1c[nH]c2ccccc12 [Indole-3-carboxylic acid]
remaining activity at 1.25 µM ([1]; Well no.=6741): 95.4%
remaining activity at 3.75 µM ([2]; Well no.=6741): 97.8%

CCN[C@H]1CN(CCCOC)S(=O)(=O)c2sc(S(N)(=O)=O)cc21 [Brinzolamide]
remaining activity at 1.25 µM ([1]; Well no.=5028): 105%
remaining activity at 3.75 µM ([2]; Well no.=5028): 105%

NC(=O)CCCSc1nc(N)nc(-c2c(Cl)cc3c4c(cccc24)COC3)n1 [CH5138303]
remaining activity at 1.25 µM ([1]; Well no.=8668): 95%
remaining activity at 3.75 µM ([2]; Well no.=8668): 90.8%

CCn1nnc2c(N3CCOCC3)nc(-c3ccc(NC(=O)Nc4ccc(C(=O)N5CCN(C)CC5)cc4)cc3)nc21 [PKI-402]
remaining activity at 1.25 µM ([1]; Well no.=4699): 105%
remaining activity at 3.75 µM ([2]; Well no.=4699): 101%

NC(N)=NOCC[C@H](N)C(=O)O [L-Canavanine sulfate]
remaining activity at 1.25 µM ([1]; Well no.=382): 88.7%
remaining activity at 3.75 µM ([2]; Well no.=382): 96.4%

NCCCCNCCCN [Spermidine trihydrochloride]
remaining activity at 1.25 µM ([1]; Well no.=1168): 102%
remaining activity at 3.75 µM ([2]; Well no.=1168): 104%

CCCCCCCN[C@H]1CCC[C@@H]1CCCCCCC(=O)O (racemic)
remaining activity at 1.25 µM ([1]; Well no.=4531): 95.3%
remaining activity at 3.75 µM ([2]; Well no.=4531): 98%

CC1(C)CNc2cc(NC(=O)c3cccnc3NCc3ccncc3)ccc21 [Motesanib Diphosphate (AMG-706)]
remaining activity at 1.25 µM ([1]; Well no.=4611): 101%
remaining activity at 3.75 µM ([2]; Well no.=4611): 100%

CCCC1O[C@@H]2C[C@H]3[C@@H]4CCC5=CC(=O)C=C[C@]5(C)[C@H]4[C@@H](O)C[C@]3(C)[C@]2(C(=O)CO)O1 (stereo partly shown) [Budesonide]
remaining activity at 1.25 µM ([1]; Well no.=81): 105%
remaining activity at 1.25 µM ([1]; Well no.=6659): 98.6%
remaining activity at 3.75 µM ([2]; Well no.=81): 102%
remaining activity at 3.75 µM ([2]; Well no.=6659): 98.7%

Cc1csc(-c2nnc(Nc3ccc(Oc4ncccc4-c4ccnc(N)n4)cc3)c3ccccc23)c1 [AMG 900]
remaining activity at 1.25 µM ([1]; Well no.=5023): 97.2%
remaining activity at 3.75 µM ([2]; Well no.=5023): 100%
